Assay results reported in US20220218714A1, “METHOD OF TREATING CANCER” (Epizyme, Inc., priority 2013, published 2022).
“Also recorded” adds a separate entry of the source.

Key:
[1] = test system: PDX of synovial sarcoma tumors; test: Tumor volume in patient-derived xenografts (PDX) of synovial sarcoma, 35 days dosing; type: in vivo, athymic nude mice; details: two synovial sarcoma PDX; oral 125, 250 or 500/400 mg/kg for 35 days
Experimental: FIGS. 11A and 11C show mean in vivo tumor volumes for athymic nude mice bearing one of two different PDX of synovial sarcoma tumors. FIGS. 11B and 11D show percent survival for mice bearing a PDX. Mice were dosed with either vehicle (oral for 35 days), Compound A (oral: 125 mg/kg, 250 mg/kg, or 500/400 mg/kg for 35 days) or Doxorubicin (iv: 3 mg/kg, once a week for 3 weeks). FIGS. 11A and 11B show data from mice bearing PDX from high-grade spindle cell sarcoma. FIGS. 11C and 11D show data from mice bearing PDX.

HS-SY-II cells = test: Adherent cell line 14-day long-term proliferation assay (CellTiter-Glo); type: cell-based, human
Experimental: (§1) 96-well plating for 7 day assay: For each adherent cell line, plated cells in a volume of 100 μL in 96-well plates, to be treated in triplicate, either in the evening (to treat with compound the following day) or in morning (to treat with compound in the evening), to allow cells to attach to plates before compound treatment.
(§2) 6-well plates to be split for 7-14 day assay: Plated 2mL of cells at the correct density in each well of the 6-well plate. Calculated the correct density from the 96-well plate growth curve by multiplying the 96-well density by 30. The factor 30 came from growth area of the 6-well plate divided by the growth area of the 96-well plate (9.5cm^2/0.32cm^2=29.7, rounded up to 30), which corresponds to 30-fold more surface area in a 6-well vs. a 96-well plate.
(§3) Day 0: Treated with compound or DMSO by removing media and adding back either […] (for 96-well plate) or 2 mL (for 6-well plate) media with the correct dilutions of compound/DMSO. Table 1 includes an example of 96-well plate map. Plates were incubated for 96 hours.
(§4) Read one 96-well plate with CellTiter-Glo®, for a Day 0 reading (media change not necessary for this plate).
(§5) Day 4: Read one 96-well plate with CellTiter-Glo® for a Day 4 reading (media change not necessary for this plate before reading). Replaced media with fresh media containing compound on Day 4 in 96-well plates and 6-well plates.
(§6) Day 7: read final 96-well plate with CellTiter-Glo®.
(§7) Counted individual wells of 6-well plates, and replated cells to initial plating density in 96-well plates, as described above.
(§8) Repeated steps for Days 0-7 for Days 7-14 of the proliferation assay.
(§9) Particularly, approximately 12 hours before compound treatment, HS-SY-II or SW982 cells were plated at the density of 24,000 cells/well and 7,500 cells/well, respectively in 6-well plates. On day 0, cells were treated with either DMSO or compound starting at 10 μmol/L and decreasing in fourfold dilutions. On day 7, the cells in 6-well plates were trypsinized, counted by TC10 automated cell counter (Bio-Rad, Richmond, Calif.) and replated at the density of 800 cells/well and 250 cells/well for HS-SY-II and SW982, respectively in 96-well plates in triplicate. The cells were allowed to adhere to the plate overnight, and treated with either DMSO or compound as on Day 0. On days 0, 7, 11, and 14, cell viability was determined by CellTiter-Glo® Luminescent Cell Viability Assay (Promega) with EnVision 2103 Multilabel Reader (Perkin-Elmer, Wellesley, Mass.). Compound/media was changed with new one on Day 4 and 11. The ratios of the measured values on Days 7, 11, and 14 to that of day 7 were used to plot proliferation from day 7 to day 14, and to calculate the IC50 values on Day 14. […]

SW982 cells [2] = test: as above; type: cell-based, human
Experimental: as §1, §2, §3, §4, §5, §6, §7, §8, §9

HS-SY-II xenograft = test: Gene expression changes in vivo in HS-SY-II xenograft model (RT-PCR); parameters: species or system mice; details: 500 mg/kg oral twice daily for 7 days; 3 hours after last dose
Experimental: (§10) Tumor samples were collected at approximately 3 hours after the last dose from mice used in analysis for PK values and PD alterations. The tumor samples were stored using RNAlater (AM7020, Life technologies). Total RNA isolation and the reverse transcription were performed by RNeasy Mini Kit (74104, Qiagen) and High capacity cDNA Reverse Transcription kit (4368814, Life technologies) according to the manufacturer's instruction. The cDNA samples were used for real time-PCR as described above.
as §10, with “above. […] Additionally or alternatively, total RNAs were isolated from frozen tumor samples. The TruSeq' RNA Sample Prep Kit (Illumina) was used to build cDNA library for paired-end sequencing on the Illumina HiSeq (details described in Illumina TruSeq RNA Sample Preparation Guide). […] Paired-end reads from ˜50M clusters per sample were generated using TruSeq SBS kit on the Illumina HiSeq.” for “above.”

SW982 cells [3] = details: SW982 in vitro culture

CCN(c1cc(-c2ccc(CN3CCOCC3)cc2)cc(C(=O)NCc2c(C)cc(C)[nH]c2=O)c1C)C1CCOCC1 [Compound A]
tumor volume [1]: dose-related tumor volume decrease
sensitivity (cell proliferation / viability) (HS-SY-II cells): high sensitivity; also recorded: highly sensitive
sensitivity (cell proliferation / viability) (SW982 cells [2]): did not; also recorded: not sensitive
CDKN2A expression in tumor (HS-SY-II xenograft): significantly upregulated
ATF3 and EGR1 expression (SW982 cells [3]): not in SW982
